Data set [1] has as its target cathepsin X (Homo sapiens, UniProt Q9UBR2). The experiment in a line: Determination of relative inhibition of cathepsin X. In kind it is biochemical. Also noted: made in house; host or cells: Pichia pastoris.
Data set [2] addresses T1, Cathepsin H (Homo sapiens, UniProt P09668).
T1 construct: native cathepsin H was isolated from human liver; from tissue; host or cells: human liver
Briefly: Ki against cathepsin H (Z-R-AMC). Format: biochemical. The settings on record: SigmaPlot at 3 different substrate concentrations; pH 6.8. The method, then: Recombinant or native human cathepsins were used: recombinant cathepsin X and cathepsin S were expressed in Pichia pastoris, recombinant cathepsins B and L in E. coli, [43], native cathepsin H was isolated from human liver. Assay buffers for determining activities of cathepsins X and L consisted of 100 mM sodium acetate buffer, pH 5.5, for cathepsins H, S and B (endopeptidase activity) of 100 mM phosphate buffer pH 6.8, 6.5 and 6.0, respectively and for cathepsin B (exopeptidase activity) of 60 mM acetate buffer pH 5.0. Each assay buffer contained 0.01% Triton X-100 to prevent false positive inhibition due to aggregation of compounds[45], 5 mM cysteine, 1.5 mM EDTA and 0.1% PEG 8000. Enzymes were activated at 37 °C for 5 min before the assays.
Ki was determined by measuring the initial rate of hydrolysis at three different substrate concentrations (Supplementary Table S2) in the presence of seven different compound concentrations (0, 20, 40, 60, 80, 100 and 200 μM). 90 μL of the activated cathepsin was added to a black 96-well plate with 5 μL of the substrate and 5 μL of the compound. Formation of the fluorescent degradation product was monitored continuously at 460 nm ± 10 nm with excitation at 380 nm ± 20 nm (for AMC substrates) and, as noted above for Abz substrates, at 37 °C. All measurements were performed twice and in duplicate. The resulting data were analyzed by non-linear regression using the software SigmaPlot®, Enzyme Kinetics Module™ 1.3 and were fitted to the equation v = v max [S]/([S] (1 + [I]/αK i ) + K m (1 + [I]/K i )) (first group of compounds). For Ki determination against cathepsin X for the compounds from the second group, progress curves in the absence and presence of each putative inhibitor were fitted to the reaction mechanism presented in Fig. 3b. In this case the resulting data as well as reactivation curves were fitted to the equation system presented in Fig. 3c using ENZO application. For calculation of kinetic parameters from reaction progress curves the fluorescence coefficient for conversion of arbitrary fluorescence units to concentration was first determined. The fluorescence coefficient was calculated as the slope from the plot of initial substrate concentration vs. height of the plateau of the progress curve after complete hydrolysis of increasing concentrations of substrate, using linear regression.
Supplementary Table S2. Substrates used for the various cathepsins and their concentrations […]
Enzyme Substrate Concentration (µM) Reference/Company cathepsin X Abz-FEK(Dnp)-OH 3.25, 6.5, 13 Puzer et al.3 cathepsin B - endopept. Z-RR-AMC 60, 180, 360 Bachem cathepsin B - exopept. Abz-GIVRAK(Dnp)-OH 1, 3, 6 Bachem cathepsin S Z-VVR-AMC 0.5, 1, 1.5 Biomol cathepsin L Z-FR-AMC 0.5, 1, 4 Bachem cathepsin H Z-R-AMC 20, 80, 160 Biomol […]

The subject of data set [3] is PC-3 cells. Briefly: Cytotoxicity assay (MTS) in PC-3 cells. Format: cell-based, human. The note with it: up to 10 μM, 24 and 48 hours. The procedure: Human prostate cancer cell line PC-3 cells (obtained from ATCC, Manassas, USA; ATCC Number: CRL-1435) were cultured in F-12 (Gibco) and Advanced DMEM (Gibco) (1:1) with 10% FBS, 1% penicillin/streptomycin and 1% L-glutamine. Rat pheochromocytoma PC-12 cells (obtained from ATCC, Manassas, USA; ATCC Number: CRL-1721) were cultured in Advanced DMEM (Gibco) with 5% FBS, 10% heat-inactivated horse serum, 1% penicillin/streptomycin and 1% L-glutamine.
6.5 × 10^4 PC-3 cells/ml were seeded in a 96-well plate. PC-12 cells were seeded on poly-L-lysine (Sigma) coated plates in serum-free medium at a concentration of 4 × 10^4/well. Cells were treated with various concentrations of compounds (1, 2.5, 5 and 10 μM) for 24 or 48 hours. Cytotoxicity was determined with MTS reagent (CellTiter 96 Aqueous One Solution Cell Proliferation Assay, Promega) and A492 measured after 1 hour.

Data set [4] has as its system PC-12 cells. Briefly: Determination of F-actin content of cells (phalloidin-TRITC fluorescence microscopy). The note with it: 10 µM, 2 h. Format: cell-based, rat. The procedure:
For the fluorescence staining of F-actin, PC-12 cells were cultured on glass coverslips coated with poly-L-lysine (4 × 10^4/ml). Next day, cells were treated with compounds (10 µM) in serum-free medium for 2 h. The cells were then fixed in 5% formalin (w/v) in PBS (pH 7.4) for 5 min and permeabilized with 0.1% Triton X-100 in PBS for 3 min. After washing with PBS, cells were incubated with phalloidin-TRITC (500 ng/mL) (Sigma) in 20 mM TrisHCl (pH 7.4) at 37 °C for 30 min. After additional washing with PBS, the Prolong Antifade kit was used for mounting the coverslips on glass slides. Fluorescence microscopy was performed using an Olympus IX 81 motorized inverted microscope.

Like-named read-outs stand apart in the source and are kept apart here. A value given as a limit tells only on which side of the number the result lay.

Sequence of cathepsin X (Q9UBR2 62-303): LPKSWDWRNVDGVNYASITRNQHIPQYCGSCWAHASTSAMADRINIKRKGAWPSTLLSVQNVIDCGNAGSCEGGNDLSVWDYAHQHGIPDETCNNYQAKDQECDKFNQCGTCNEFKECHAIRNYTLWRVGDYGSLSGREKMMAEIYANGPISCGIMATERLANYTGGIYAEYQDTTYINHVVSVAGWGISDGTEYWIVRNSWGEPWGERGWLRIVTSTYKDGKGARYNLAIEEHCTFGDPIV
T1 sequence (P09668 116-335 limits assumed, other chains not shown): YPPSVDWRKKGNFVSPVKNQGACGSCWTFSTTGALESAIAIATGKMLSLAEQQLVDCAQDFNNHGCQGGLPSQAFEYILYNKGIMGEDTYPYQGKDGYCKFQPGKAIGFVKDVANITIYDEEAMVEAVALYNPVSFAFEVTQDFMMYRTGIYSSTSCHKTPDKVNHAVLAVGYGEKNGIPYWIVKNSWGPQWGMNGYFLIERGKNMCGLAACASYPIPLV

For orientation: inhibition means the share of the control response that was lost under treatment. Usually Ki stands for a dissociation constant, usually derived from enzyme kinetics or from competition with a known ligand. A lower Ki goes with higher affinity. Turning to `CC(C)n1cnnc1SCC(=O)c1ccc2c(c1)OCCO2` [Compound 22, 1-(2,3-Dihydrobenzo[b][1,4]dioxin-6-yl)-2-((4-isopropyl-4H-1,2,4-triazol-3-yl)thio)ethan-1-one], the inhibition at 50 µM in data set [1] (screening at 50 μM compound, read-out: relative inhibition of cathepsin X) is more than 70%; in data set [1] (second group, 50 μM compound, 1 h preincubation, read-out: % inhibition (1 h preincubation)) it was 75%. The Ki in data set [2] was more than 1000 µM. Besides, the “cytotoxicity to PC-3 cells” value in data set [3] was “not cytotoxic”. Besides, the actin polymerization entry in data set [4] is given as “increased actin polymerization”.

(Values after publication PMC5597618, “Identification and characterization of the novel reversible and selective cathepsin X inhibitors” (Scientific Reports, 2017).)
